According to ChEMBL document CHEMBL4024707, “Using gene expression database to uncover biology functions of 1,4-disubstituted 1,2,3-triazole analogues synthesized via a copper (I)-catalyzed reaction” (Eur J Med Chem, 2017):
pIC50: −log10 of the molar value. Calls of active or inactive are those of the source. The calls are words filed in the database; no cut-off is given here.

Tests used:
Hep 3B2 [1] = assay: Cell cycle arrest in human Hep3B cells assessed as accumulation at G0/G1 phase at 20 uM after 72 hrs by propidium iodide staining based flow cytometry (reference value: 41.6 to 46.2%); format: functional
Hep 3B2 [2] = assay: Cell cycle arrest in human Hep3B cells assessed as accumulation at S phase at 2.5 uM after 24 hrs by propidium iodide staining based flow cytometry (reference value: 22.6 to 27.1%); format: functional
Hep 3B2 [3] = assay: Cell cycle arrest in human Hep3B cells assessed as accumulation at G0/G1 phase at 20 uM after 24 hrs by propidium iodide staining based flow cytometry (reference value: 36.3 to 39.0%); format: functional
Hep 3B2 [4] = assay: Cell cycle arrest in human Hep3B cells assessed as accumulation at S phase at 2.5 uM after 72 hrs by propidium iodide staining based flow cytometry (reference value: 16.4 to 21.1%); format: functional
Hep 3B2 [5] = assay: Cell cycle arrest in human Hep3B cells assessed as accumulation at sub-G1 phase after 24 to 72 hrs by propidium iodide staining based flow cytometry; format: functional
Hep 3B2 [6] = assay: Cell cycle arrest in human Hep3B cells assessed as accumulation at S phase at 20 uM after 48 hrs by propidium iodide staining based flow cytometry (reference value: 20.8 to 24%); format: functional
HUVEC = assay: Cytotoxicity against HUVEC after 48 hrs by MTT assay; format: cell-based; conditions: Homo sapiens
Hep 3B2 [7] = assay: Growth inhibition of human Hep3B cells at 10 uM after 24 hrs by MTT assay relative to control; format: functional; conditions: read-out: GI
Hep 3B2 [8] = assay: Cell cycle arrest in human Hep3B cells assessed as accumulation at G0/G1 phase at 20 uM after 48 hrs by propidium iodide staining based flow cytometry (reference value: 39.7 to 40.4%); format: functional
Hep 3B2 [9] = assay: Induction of autophagy in human Hep3B cells after 24 to 72 hrs by acridine orange staining based flow cytometry; format: functional, cell-based
Hep 3B2 [10] = assay: Cell cycle arrest in human Hep3B cells assessed as accumulation at S phase at 5 uM after 48 hrs by propidium iodide staining based flow cytometry (reference value: 20.8 to 24%); format: functional
Hep 3B2 [11] = assay: Cell cycle arrest in human Hep3B cells assessed as accumulation at S phase at 10 uM after 72 hrs by propidium iodide staining based flow cytometry (reference value: 16.4 to 21.1%); format: functional
[12] = Growth inhibition of HUVEC at 25 uM after 24 hrs by MTT assay relative to control; format: cell-based; conditions: human, HUVEC cells; read-out: GI
Hep 3B2 [13] = assay: Cell cycle arrest in human Hep3B cells assessed as accumulation at S phase at 5 uM after 24 hrs by propidium iodide staining based flow cytometry (reference value: 22.6 to 27.1%); format: functional
Hep 3B2 [14] = assay: Down regulation of TFAP2A expression in human Hep3B cells at 1 uM after 6 to 24 hrs by L1000 expression profiling method relative to control; format: functional
Hep 3B2 [15] = assay: Induction of autophagy in human Hep3B cells at 10 uM after 48 hrs by acridine orange staining based flow cytometry (reference value: 0.9 to 3%); format: functional
Hep 3B2 [16] = assay: Down regulation of EDN1 expression in human Hep3B cells at 1 uM after 6 to 24 hrs by L1000 expression profiling method relative to control; format: functional
Hep 3B2 [17] = assay: Up regulation of OXA1L expression in human Hep3B cells at 1 uM after 6 to 24 hrs by L1000 expression profiling method relative to control; format: functional
Hep 3B2 [18] = assay: Cell cycle arrest in human Hep3B cells assessed as accumulation at sub-G1 phase at 20 uM after 48 hrs by propidium iodide staining based flow cytometry (reference value: 1.5 to 6.5%); format: functional
Hep 3B2 [19] = assay: Induction of autophagy in human Hep3B cells assessed as ratio of LC3-2 to beta-actin level at 10 uM after 48 hrs in absence of curcumin by Western blot analysis; format: functional
Hep 3B2 [20] = assay: Up regulation of CDKN1A expression in human Hep3B cells at 1 uM after 6 to 24 hrs by L1000 expression profiling method relative to control; format: functional
Hep 3B2 [21] = assay: Down regulation of DUSP11 expression in human Hep3B cells at 1 uM after 6 to 24 hrs by L1000 expression profiling method relative to control; format: functional
Hep 3B2 [22] = assay: Down regulation of FOS expression in human Hep3B cells at 1 uM after 6 to 24 hrs by L1000 expression profiling method relative to control; format: functional
Hep 3B2 [23] = assay: Down regulation of SNX13 expression in human Hep3B cells at 1 uM after 6 to 24 hrs by L1000 expression profiling method relative to control; format: functional
Hep 3B2 [24] = assay: Cell cycle arrest in human Hep3B cells assessed as accumulation at G2/M phase at 10 uM after 48 hrs in presence of curcumin by propidium iodide staining based flow cytometry (reference value: 36.6 +/- 2.9%); format: functional
Hep 3B2 [25] = assay: Induction of autophagy in human Hep3B cells after 48 to 72 hrs by acridine orange staining based flow cytometry; format: functional, cell-based
Hep 3B2 [26] = assay: Down regulation of SHB expression in human Hep3B cells at 1 uM after 6 to 24 hrs by L1000 expression profiling method relative to control; format: functional
Hep 3B2 [27] = assay: Induction of autophagy in human Hep3B cells at 20 uM after 48 hrs by acridine orange staining based flow cytometry (reference value: 0.9 to 3%); format: functional
Hep 3B2 [28] = assay: Induction of autophagy in human Hep3B cells assessed as ratio of LC3-2 to beta-actin level at 10 uM after 48 hrs in presence of curcumin by Western blot analysis; format: functional
Hep 3B2 [29] = assay: Cell cycle arrest in human Hep3B cells assessed as accumulation at S phase at 10 uM after 48 hrs in presence of curcumin by propidium iodide staining based flow cytometry (reference value: 23.8 +/- 1.9%); format: functional
Hep 3B2 [30] = assay: Down regulation of TMX2-CTNND1 expression in human Hep3B cells at 1 uM after 6 to 24 hrs by L1000 expression profiling method relative to control; format: functional
Hep 3B2 [31] = assay: Cell cycle arrest in human Hep3B cells assessed as accumulation at G0/G1 phase at 40 uM after 48 hrs by propidium iodide staining based flow cytometry (reference value: 39.7 to 40.4%); format: functional
Hep 3B2 [32] = assay: Cell cycle arrest in human Hep3B cells assessed as accumulation at sub-G1 phase at 40 uM after 48 hrs by propidium iodide staining based flow cytometry (reference value: 1.5 to 6.5%); format: functional
Hep 3B2 [33] = assay: Cell cycle arrest in human Hep3B cells assessed as accumulation at G0/G1 phase at 2.5 uM after 72 hrs by propidium iodide staining based flow cytometry (reference value: 41.6 to 46.2%); format: functional
Hep 3B2 [34] = assay: Induction of autophagy in human Hep3B cells at 40 uM after 24 hrs by acridine orange staining based flow cytometry (reference value: 1.1 to 1.3%); format: functional
Hep 3B2 [35] = assay: Growth inhibition of human Hep3B cells at 10 uM up to 72 hrs by MTT assay; format: functional, cell-based
Hep 3B2 [36] = assay: Cell cycle arrest in human Hep3B cells assessed as accumulation at G0/G1 phase at 2.5 uM after 48 hrs by propidium iodide staining based flow cytometry (reference value: 39.7 to 40.4%); format: functional

Compound | Activity (Hep 3B2 [1]) [%] | Activity (Hep 3B2 [2]) [%] | Activity (Hep 3B2 [3]) [%] | Activity (Hep 3B2 [4]) [%] | Activity (Hep 3B2 [5]) | Activity (Hep 3B2 [6]) [%] | pIC50 (HUVEC) | inhibition of growth at 10 µM (Hep 3B2 [7]) [%] | Activity (Hep 3B2 [8]) [%] | Activity (Hep 3B2 [9]) | Activity (Hep 3B2 [10]) [%] | Activity (Hep 3B2 [11]) [%] | inhibition at 24 h, 25 µM [12] [%] | Activity (Hep 3B2 [13]) [%] | Activity (Hep 3B2 [15]) [%] | Activity (Hep 3B2 [18]) [%] | Activity (Hep 3B2 [27]) [%] | also measured
CNC(=O)c1cc(Oc2ccc(NC(=O)Nc3ccc(Cl)c(C(F)(F)F)c3)cc2)ccn1 [SORAFENIB] | 13.6 | 21.9 | 45.7 | 15 | Dose-dependent effect | 9.6 | 4.39 | 8.6 | 27.8 | Dose-dependent effect | 13.1 | 7.9 | 41.4 | 19.8 | – | – | – | –
O=C1COc2ccccc2N1Cc1cn(CCC2OCCO2)nn1 | – | – | – | – | Dose-dependent effect | – | 3.94 | 18 | – | – | – | – | 23.8 | – | 20.3 | 57.2 | 37 | log2FC (Hep 3B2 [14]): -3.78; log2FC (Hep 3B2 [16]): -3.5482; log2FC (Hep 3B2 [17]): 3.2193; Ratio (Hep 3B2 [19]): 2.2; log2FC (Hep 3B2 [20]): 3.0523; log2FC (Hep 3B2 [21]): -3.3243; log2FC (Hep 3B2 [22]): -3.1627; log2FC (Hep 3B2 [23]): -4.142; Activity (Hep 3B2 [24]): 44.8%; Activity (Hep 3B2 [25]): Dose-dependent effect; log2FC (Hep 3B2 [26]): -3.2569; Ratio (Hep 3B2 [28]): 10.5; Activity (Hep 3B2 [29]): 8.8%; log2FC (Hep 3B2 [30]): -3.9071
COc1ccc(CNC(=O)Nc2ncc([N+](=O)[O-])s2)cc1 | 43.6 | 25.7 | 33 | 21.1 | – | 20 | – | – | 37.8 | Dose-dependent effect | 24.6 | 21.5 | – | 25 | 5.8 | 3.6 | 5.5 | Activity (Hep 3B2 [31]): 34.7%; Activity (Hep 3B2 [32]): 8.9%; Activity (Hep 3B2 [33]): 42.3%; Activity (Hep 3B2 [34]): 7.1%; growth inhibition (GI) (Hep 3B2 [35]): Active; Activity (Hep 3B2 [36]): 38.5%
